Reference: PubChem BioAssay AID2305 (GlaxoSmithKline (GSK), 2010)
pIC50: −log10 of the molar value.

System: P. falciparum 3D7 growth, pLDH absorbance
Assay: blood-stage malaria parasite growth potency – strain 3D7, dose response (AID 2305)

| Compound | pIC50 |
| --- | --- |
| CN(C)CCCOc1cccc(NC(=O)Nc2ccc(-c3ccccc3)cc2)c1 | 6.06 |
| Cc1cccc2[nH]c(-c3cccc(-c4cccc(CNCC5CCCO5)c4)c3)nc12 (configuration not stated) | 6.22 |
| O=C(Nc1ccncc1)Nc1ccc2c(c1)CCN(C1CCC1)CC2 | 5.95 |
| CCCCOc1cc2c(cc1OCC)C(C=Cc1ccc(Cl)cc1Cl)=NCC2 | 6.40 |
| CC(C)(Oc1c(C2CCN(CCCCNC(=O)c3ccc(-c4ccc(C#N)cc4)cc3)CC2)ccc2c1CCCC2)C(N)=O | 6.15 |
| O=C(NCCN1CCC(c2ccncc2)CC1)c1cccc(Nc2nccc(Nc3ccc(Oc4ccccc4)cc3)n2)c1 | 6.77 |
| CC(C)CCn1c(Sc2ccc(C#N)c([N+](=O)[O-])c2)nnc1-c1ccc(Cl)cc1 | 6.06 |
| CN(CCO)Cc1cccc(-c2ccc(NC(=O)c3cccc(C#N)c3)cc2)c1 | 6.10 |
| COc1ccc(S(=O)(=O)Nc2cc(Br)cc3c2OCCC3)cc1N1CCN(C(=O)C(Cl)(Cl)Cl)CC1 | 6.06 |
| COc1cccc(CNC(=O)[C@@H]2CN(C(=O)c3ccccc3)CCN2)c1 | 5.94 |
| O=S(=O)(NCCN1CCCC1)c1ccc(-c2ccc(CNCc3ccc(F)cc3)cc2)s1 | 6.08 |
| CN1CCC(Oc2cc(NC(=O)Nc3ccc(-c4ccncc4)c(C(F)(F)F)c3)ccc2Cl)CC1 | 6.11 |
| Oc1ccc2[nH]c(-c3cccc(F)c3)nc2c1CNCc1ccccc1 | 6.04 |
| O=C(NOCCOc1ccccc1)c1ccccc1 | 6.49 |
| CC(C)C(NC(=O)c1c(F)cccc1F)C(=O)Nc1ccc(Cc2nc3ccccc3s2)cc1 (configuration not stated) | 6.35 |
| CN1CCN(c2ccc(Nc3c4ccccc4nc4ccccc34)cc2)CC1 | 6.19 |
| CCOc1c(Br)cc(C)cc1CNCCCNc1nc2ccccc2[nH]1 | 6.17 |
| Cc1cc(N[C@@H](Cc2ccccc2)C(=O)NC2CCCC2)nc(NCCCOC(C)C)n1 | 5.83 |
| CCc1cccc(C)c1-n1nc(-c2cc(C(C)(C)C)oc2C)cc1N | 6.18 |
| N#Cc1ccc(C(=O)Nc2ccc(Cl)c(N3CCN(CCc4ccccc4)CC3)c2)cc1 | 6.03 |
| Cc1ncc(CN2CCC(C(=O)Nc3ccc(-c4nc5ccccc5o4)cc3)CC2)s1 | 6.41 |
| N#CCCN1CCN(Cc2ccc(-c3cccc(-c4nc5ccc(F)cc5[nH]4)c3)cc2)CC1 | 6.01 |
| CS(=O)(=O)Nc1ccc(-c2cnc3[nH]cc(-c4ccc(C(=O)O)cc4)c3c2)cc1 | 6.10 |
| O=[N+]([O-])c1ccc(Oc2c(Cl)cc(S(=O)(=O)N3CCC(CN4CCC(c5c[nH]c6ccccc56)CC4)CC3)cc2Cl)c(Cl)c1 | 6.00 |
| Cc1cccc2[nH]c(-c3ccc(-c4ccc(CN5CCN(c6cnccn6)CC5)cc4)s3)nc12 | 6.12 |

| Compound | pIC50 |
| --- | --- |
| c1cc(CNC2CCCC2)cc(-c2ccc(CNc3ccc4ncccc4c3)cc2)c1 | 6.11 |
| COCCCN=C(N)c1ccc(NC(=O)c2ccc(C(=O)Nc3ccc(C(N)=NCCCOC)cc3)cc2)cc1 | 7.30 |
| O=C(NC1CCN(CC2(c3ccccc3F)CCCC2)CC1)c1ccn[nH]1 | 6.00 |
| CCCC[C@H](NC(=O)OC(C)(C)C)C(=O)Nc1ccc(Cc2ccc(NC(=O)[C@H](CCCC)NC(=O)OC(C)(C)C)cc2)cc1 | 6.14 |
| CCc1nc2c(cnn2CC)c(NC2CCOCC2)c1CNC(=O)N1CCOCC1 | 6.05 |
| CC1(C)CC(NCCCCCCCOc2ccc(OCc3ccccc3)cc2)CC(C)(C)N1 | 6.08 |
| CC(C)N(CCOc1ccc2c(c1)N(C(=O)Nc1ccc(Cl)c(Cl)c1)CC2)C(C)C | 6.43 |
| OCC1CCN(Cc2ccc(-c3cccc(-c4nc5ccc(F)cc5[nH]4)c3)cc2)CC1 | 6.04 |
| N#CCSc1nnc(-c2ccccc2)c2ccccc12 | 6.14 |
| CN(CCCc1c[nH]c2ccccc12)CC1CCN(C(=O)/C=C/c2ccc(Cl)c(Cl)c2)CC1 | 6.12 |
| FC(F)(F)c1ccc2nc(-c3ccc(-c4ccc(CNCCc5ccncc5)cc4)cc3)[nH]c2c1 | 6.89 |
| Cc1cc2c(cc1C(F)(F)F)N(C(=O)Nc1cnc(OCCN(C)C)c(C(F)(F)F)c1)CC2 | 6.01 |
| COc1cccc(OC(C)(C)c2nc(N[C@@H](C)c3ccccc3)c3cn[nH]c3n2)c1 | 6.01 |
| COc1ccc(-c2nonc2NC(=O)c2cccc(Cl)c2)cc1OC | 6.06 |
| O=C(N[C@@H](Cc1ccccc1)[C@H](O)CNCCC(F)(F)F)c1cccc(OCC2CC2)c1 | 6.21 |
| CCCCCCCN1CCC(CC(=O)Nc2ccnc3ccc(OC)cc23)CC1 | 6.14 |
| Cc1cc(N2CCOCC2)nc(Nc2ccc(NC(=O)Nc3ccc(F)cc3)cc2)n1 | 6.31 |
| Nc1cc(-c2cc3c(OCc4ccccc4)cccc3[nH]2)ccn1 | 5.92 |
| CC(=O)Oc1c(Cl)c(C)nc(C)c1-c1ccc(Oc2ccc(OC(F)(F)F)cc2)cc1 | 7.00 |
| COc1ccc(CC(=O)NC(CCN2CCC3(CCc4ccccc43)CC2)c2ccc(Cl)c(Cl)c2)cc1 (configuration not stated) | 6.28 |
| COc1ccc2cc(-c3nc(-c4c(Cl)cccc4Cl)[nH]c3-c3ccnc(NCCCN4CCN(C)CC4)c3)ccc2c1 | 6.15 |
| CC[C@H]1CN2CC[C@H]1C[C@H]2[C@H](O)c1cc(-c2ccc(OC(F)(F)F)cc2)nc2ccc(OC)cc12 | 7.30 |
| Cc1cc(NC2CCN(CC3CCCCC3)C2)nc(Nc2ccc(Br)cc2)n1 (configuration not stated) | 6.24 |
| CCCN(Cc1nnc(-c2ccco2)o1)C(=O)C1CCCN(C(=O)c2ccc(Cl)cc2)C1 (configuration not stated) | 6.28 |
| Cc1cc(N[C@@H](CC(C)C)C(=O)NCCc2ccccc2)nc(NCCc2ccc(F)cc2)n1 | 6.11 |

| Compound | pIC50 |
| --- | --- |
| CC(O)C1CCCCN1C(=O)c1cccc(-c2cccc(-c3nc4ccccc4[nH]3)c2)c1 (configuration not stated) | 6.28 |
| C[C@H](Cc1ccc(S(=O)(=O)c2ccc(C[C@@H](C)NC[C@H](O)c3cccc(Cl)c3)cc2)cc1)NC[C@H](O)c1cccc(Cl)c1 | 6.59 |
| CCCCN1C(=O)[C@H]2CC(=O)CC(C3CCCCC3)[C@H]2C1=O (some centres not stated) | 6.05 |
| CN(CCCNCc1ccc2ccccc2c1)CCCNCc1ccc2ccccc2c1 | 6.41 |
| Cc1cccc2[nH]c(-c3cccc(-c4ccc(NC(=O)c5cnc[nH]5)cc4)c3)nc12 | 6.14 |
| O=C(NCCCCCN1CCC(c2c[nH]c3ccccc23)CC1)Nc1cccc(Br)c1 | 5.95 |
| Cc1cc2nc(-c3ccc(C(=O)NCc4cccc(F)c4)cc3)[nH]c2cc1C | 6.02 |
| Cc1cc(NCc2ccccc2)nc(NCc2ccccc2)n1 | 6.01 |
| Cc1[nH]c(C)c(-c2ccc(-c3cccc(Cl)c3)nc2)c(=O)c1Cl | 6.72 |
| O=C(Nc1cccc(-c2cccc(-c3nc4ccc(C(F)(F)F)cc4[nH]3)c2)c1)c1cnc[nH]1 | 6.68 |
| CC[C@H]1CN2CC[C@H]1C[C@H]2[C@H](O)c1ccnc2ccc(O)cc12 | 6.19 |
| CCOc1ccc(Cc2c(C)nc3nc(N)nc(N)c3c2C)cc1 | 5.97 |
| O=C(Nc1cc(C(F)(F)F)cc(C(F)(F)F)c1)c1cc(C(F)(F)F)cc(C(F)(F)F)c1 | 6.06 |
| COc1ccc(-c2cccc(NC(=O)c3ccc(F)cc3)c2)cc1CNC(C)C | 5.86 |
| CC(C)(C)Oc1ccc(NC(=O)c2ccccc2O)cc1 | 6.00 |
| O=C(NC1CC1)c1cnc(N2CCC(c3ccccc3)CC2)c(Cl)c1 | 6.07 |
| Cc1cc(C(=O)Nc2ccc3c(c2)CCN3C2CCN(Cc3ccc(O)cc3)C2)no1 (configuration not stated) | 6.11 |
| COc1ccc(C(=O)Nc2cc(Br)c3c(c2)CNCC3)cc1C(F)(F)F | 5.97 |
| CC(C)CCN=C(N)Nc1ccc(OCCCOc2ccc(NC(N)=NCCC(C)C)cc2)cc1 | 6.70 |
| COc1ccc(S(=O)(=O)Nc2ccc(C(=O)NCc3ccc(C(F)(F)F)cc3)cc2)cc1N1CCN(CC2CC2)CC1 | 5.95 |
| COc1ccccc1-c1nc2nc(N)nc(N)c2nc1-c1ccccc1OC | 5.90 |
| COc1ccc(-c2cnn3ccc(Nc4cc(OC)c(OC)c(OC)c4)nc23)cc1OC | 6.19 |
| CN1CCN(c2ccnc3ccc(NC(=O)Cc4ccc(OCc5ccccc5)cc4)cc23)CC1 | 6.20 |
| CC(=O)NC1=NC(C)(C)N(OCCCOc2ccc(Cl)c(Cl)c2)C(NC(C)=O)=N1 | 8.00 |
| CC1CCCN(S(=O)(=O)c2cc(Br)cc3c2N(C(=O)C2CC2)CC3)C1 (configuration not stated) | 6.14 |

| Compound | pIC50 |
| --- | --- |
| COc1ccc(NC(=O)/C=C/c2ccc(-c3ccccc3)cc2)cc1N1CCN(C)CC1 | 6.04 |
| COc1ccc2nc(-c3ccccc3)cc(NN=Cc3ccncc3)c2c1 | 6.09 |
| O=C(NC1CCC(N2CCC(c3nc4ccccc4s3)CC2)CC1)c1cc2ccccc2[nH]1 (configuration not stated) | 6.03 |
| COc1cccc(N(CCCN2C(=O)c3cccc4cccc(c34)C2=O)C(=O)c2ccccc2C)c1 | 6.10 |
| COc1cccc(C(=O)NC(c2ccccc2OC)c2cc(Cl)c3cccnc3c2O)c1 (configuration not stated) | 5.92 |
| COCCOc1cc(C)c(C2CCN(CCCCNC(=O)c3ccc(NC(=O)c4ccc(Cl)cc4)cc3)CC2)cc1C | 6.02 |
| c1ccc2c(NCCCCCCNc3ccnc4ccccc34)ccnc2c1 | 6.72 |
| FC(F)(F)COc1ccc2ccccc2c1CNCCCCCCNCc1c(OCC(F)(F)F)ccc2ccccc12 | 6.46 |
| COc1ccc2ncc(C#N)c(CCN3CCC(NCc4cnc5c(c4)OCCO5)CC3)c2n1 | 6.22 |
| COc1cc(NCC2(CNCc3cn(Cc4ccccc4)c4ccccc34)CCCCC2)nc2ccccc12 | 6.02 |
| COc1cccc(C(=O)Nc2ccc(Nc3nc(C)cc(N(C)C)n3)cc2)c1 | 6.03 |
| CCC1(C)N=C(N)N=C(N)N1c1ccc(Cl)cc1 (configuration not stated) | 6.80 |
| COc1ccc2nccc([C@@H](O)CN3CCC(NCc4cc5ccccc5cn4)CC3)c2n1 | 6.04 |
| CNCCNCc1cccc(-c2ccc(-c3nc4ccccc4[nH]3)s2)c1 | 6.08 |
| CC(C)(C)NCCN(Cc1ccc(-c2ccc(C(F)(F)F)cc2)cc1)C(=O)Cn1c(CCc2cccc(F)c2F)nc(=O)c2c1CCC2 | 6.02 |
| O=C(CCC(=O)c1ccc2c3c(cccc13)CC2)NC1CCC(CN2CCC(c3c[nH]c4ccccc34)CC2)CC1 (configuration not stated) | 6.04 |
| COc1ccc2nccc([C@H](O)CN3CCC(NCc4cc(C)c5c(c4)OCCO5)CC3)c2n1 | 6.05 |
| COc1ccc2nccc([C@@H](O)CN3CCC(NC(=O)c4ccc(Cl)c([N+](=O)[O-])c4)CC3)c2c1 | 6.02 |
| COc1cccc(C23N=C(Nc4nc5ccccc5[nH]4)NC2(c2cccc(OC)c2)NC(Nc2nc4ccccc4[nH]2)=N3)c1 (configuration not stated) | 6.80 |
| Cc1cccc2[nH]c(-c3ccc(-c4cccc(CN5CCCC5CN)c4)s3)nc12 (configuration not stated) | 6.06 |
| NS(=O)(=O)c1ccc(CNC(=O)c2cnc3c(O)cccc3c2Nc2cccc(NC(=O)c3ccc(Cl)c(Cl)c3)c2)cc1 | 5.76 |
| O=C(NC1CCCCCC1)[C@@H]1CCCN1C(=O)c1ccc(O)c(-c2ccc(Cl)c(Cl)c2)c1 | 6.47 |
